Laboratory results published in ChEMBL document CHEMBL5214920, “Emerging impact of triazoles as anti-tubercular agent” (Eur J Med Chem, 2022).
Values after ≈ are worked out from the molar mass of the structure shown.

Tests used:
Assay type in all cases: functional
[1] = test system: Mycobacterium tuberculosis; test: Antitubercular activity against Mycobacterium tuberculosis H37Rv assessed as bacterial growth inhibition measured after 7 days by direct susceptibility assay; conditions: 168 h, time 7 day
[2] = test system: Mycobacterium tuberculosis; test: Antitubercular activity against Mycobacterium tuberculosis H37Rv assessed as bacterial growth inhibition measured after 7 days by MABA method; conditions: 168 h, time 7 day
[3] = test system: Mycobacterium tuberculosis; test: Antitubercular activity against Mycobacterium tuberculosis H37Rv ATCC 27294 assessed as bacterial growth inhibition measured after 5 days by MABA method; conditions: H37Rv ATCC 27294, 120 h, time 5 day
[4] = test system: Mycobacterium tuberculosis; test: Antitubercular activity against Mycobacterium tuberculosis H37Rv ATCC 27294 assessed as bacterial growth inhibition measured after 7 days by MABA method; conditions: H37Rv ATCC 27294, 168 h, time 7 day
[5] = test system: Mycobacterium tuberculosis; test: Antitubercular activity against Mycobacterium tuberculosis H37Rv assessed as bacterial growth inhibition measured after 24 hrs by agar micro dilution method
[6] = test system: Mycobacterium tuberculosis; test: Antitubercular activity against Mycobacterium tuberculosis H37Rv assessed as bacterial growth inhibition measured after 5 days by MABA method; conditions: 120 h, time 5 day

COc1c(N2CCNCC2)c(F)cc2c(=O)c(C(=O)O)cn(C3CC3)c12
MIC [1]: 1.56 µg/mL (≈ 4.32 µM)

Cc1ccc2c(c1)C=CC1(CCc3c(nnn3-c3ccccc3)C1)O2 (stereo not given)
MIC [2]: 1.56 µg/mL (≈ 4.74 µM)

Cc1nc2ncccn2c1C(=O)NCc1cn(Cc2ccc(C#N)cc2)nn1
MIC [3]: 1.56 µg/mL

O=C(Cn1cc(COc2ccc([N+](=O)[O-])cc2)nn1)Nc1ccc(Cl)cc1
MIC [4]: > 25 µg/mL

COc1ccccc1C1NN=C2C1Sc1nc(-c3ccc(C)cc3)nn12 (stereo not given)
MIC [5]: 3.12 µg/mL (≈ 8.6 µM)

Cc1nc2ccccn2c1C(=O)NCc1cn(Cc2ccc(C(F)(F)F)cc2)nn1
MIC [3]: 1.56 µg/mL

COc1ccc(-n2ncn(Cc3cc4ccccc4nc3Cl)c2=O)cc1
MIC [6]: 0.078 µM

C[C@H](CCC(=O)COc1cn(C[C@H]2O[C@@H](n3cnc4c(N)ncnc43)[C@@H]3OC(C)(C)O[C@@H]32)nn1)C12CCCC1C1CCC3C[C@H](O)CC[C@]3(C)C1CC2 (stereo not given in full)
MIC [3]: 4.09 µg/mL

O=C(Cn1cc(COc2ccccc2)nn1)Nc1ccccc1Cl
MIC [4]: > 25 µg/mL

COc1ccc2nc(Cl)c(C(=O)NCc3cn(CC(=O)c4ccc(F)cc4)nn3)cc2c1
MIC [3]: 1.6 µg/mL

Cc1ccccc1NC(=O)Cn1cc(COc2ccc([N+](=O)[O-])cc2)nn1
MIC [4]: > 25 µg/mL

Cc1ccc(-c2nc3n(n2)C2=NOC(c4cccc([N+](=O)[O-])c4)C2S3)cc1 (stereo not given)
MIC [5]: 3.12 µg/mL (≈ 8.24 µM)

O=C(NCc1cn(Cc2ccc(C(F)(F)F)cc2)nn1)c1cn2cccnc2n1
MIC [3]: 1.56 µg/mL

Cc1ccc(-c2nc3n(n2)C2=NNC(c4ccc([N+](=O)[O-])cc4)C2S3)cc1 (stereo not given)
MIC [5]: 3.12 µg/mL (≈ 8.26 µM)

COc1c(N2CCN(Cc3cn(CCN4C(=O)/C(=N\NC(N)=O)c5cc(Cl)ccc54)nn3)CC2)c(F)cc2c(=O)c(C(=O)O)cn(C3CC3)c12
MIC [1]: 0.39 µg/mL (≈ 0.552 µM)

Cc1ccc(-c2nc3n(n2)C2=NOC(c4ccccc4)C2S3)cc1 (stereo not given)
MIC [5]: 3.12 µg/mL (≈ 9.34 µM)

Cc1ccc(NC(=O)Cn2cc(COc3ccc([N+](=O)[O-])cc3)nn2)cc1
MIC [4]: > 25 µg/mL

COc1ccc(OCc2cn(CC(=O)Nc3ccc(C)cc3)nn2)cc1
MIC [4]: > 25 µg/mL

Cc1ccc(-c2nc3n(n2)C2=NOC(c4ccc(N(C)C)cc4)C2S3)cc1 (stereo not given)
MIC [5]: 3.12 µg/mL (≈ 8.28 µM)

COc1ccc(OCc2cn(CC(=O)Nc3ccccc3)nn2)cc1
MIC [4]: > 25 µg/mL

Cc1nc2ccccn2c1C(=O)NCc1cn(Cc2ccccc2F)nn1
MIC [3]: 1.56 µg/mL

Cc1nc2ccccn2c1C(=O)NCc1cn(Cc2ccc([N+](=O)[O-])cc2)nn1
MIC [3]: 1.56 µg/mL

Cc1ccc(-c2nc3n(n2)C2=NOC(c4ccc([N+](=O)[O-])cc4)C2S3)cc1 (stereo not given)
MIC [5]: 3.12 µg/mL (≈ 8.24 µM)

CCc1nn(-c2ccccc2)c(=O)n1N(Cc1ccccc1)Cn1nnc2ccccc21
MIC [6]: 3.12 µg/mL

O=C(O)c1cn(C2CC2)c2c(NO)c(N3CCN(Cc4cn(CCN5C(=O)/C(=N\O)c6ccccc65)nn4)CC3)c(F)cc2c1=O
MIC [1]: 0.39 µg/mL (≈ 0.617 µM)

O=C(Cn1cc(COc2ccc([N+](=O)[O-])cc2)nn1)Nc1cccc(Cl)c1
MIC [4]: > 25 µg/mL

COc1ccc(-n2ncn(Cc3cc4cc(OC)ccc4nc3Cl)c2=O)cc1
MIC [6]: 0.075 µM

Cc1cccc(NC(=O)Cn2cc(COc3ccccc3)nn2)c1
MIC [4]: > 25 µg/mL

COc1ccc2nc(Cl)c(C(=O)NCc3cn(Cc4ccccc4)nn3)cc2c1
MIC [3]: 1.6 µg/mL

Cc1cccc(NC(=O)Cn2cc(COc3ccc([N+](=O)[O-])cc3)nn2)c1
MIC [4]: > 25 µg/mL

COc1ccc(OCc2cn(CC(=O)Nc3ccc(Cl)cc3)nn2)cc1
MIC [4]: > 25 µg/mL

Cc1ccc(Cn2cc(CNC(=O)c3cn4ccccc4n3)nn2)cc1
MIC [3]: 1.56 µg/mL

O=C(Cn1cc(COc2ccccc2)nn1)Nc1ccc(Cl)cc1
MIC [4]: > 25 µg/mL

Cc1nc2ncccn2c1C(=O)NCc1cn(Cc2ccc(C(F)(F)F)cc2)nn1
MIC [3]: 1.56 µg/mL

COc1ccc(Cn2cc(CNC(=O)c3cn4ccccc4n3)nn2)cc1
MIC [3]: 1.56 µg/mL

O=C(O)c1cn(C2CC2)c2cc(N3CCN(Cc4cn(CCN5C(=O)Cc6ccccc65)nn4)CC3)c(F)cc2c1=O
MIC [1]: 0.2 µg/mL (≈ 0.35 µM)

COc1ccc(OCc2cn(CC(=O)Nc3ccccc3Cl)nn2)cc1
MIC [4]: > 25 µg/mL

COc1ccc(OCc2cn(CC(=O)Nc3cccc(Cl)c3)nn2)cc1
MIC [4]: > 25 µg/mL

O=C(NCc1cn(Cc2ccc([N+](=O)[O-])cc2)nn1)c1cn2cccnc2n1
MIC [3]: 1.56 µg/mL

N/N=c1\ccc2ccccc2o1
MIC [6]: 50 µg/mL

COc1ccc(Cn2cc(CNC(=O)c3cc4cc(OC)ccc4nc3Cl)nn2)cc1
MIC [3]: 1.6 µg/mL

Cc1ccc(Cn2cc(CNC(=O)c3cn4cccnc4n3)nn2)cc1
MIC [3]: 1.56 µg/mL

Cc1ccc(-c2nc3n(n2)C2=NNC(c4ccc(Cl)cc4)C2S3)cc1 (stereo not given)
MIC [5]: 3.12 µg/mL (≈ 8.49 µM)

O=C(NCc1cn(Cc2ccc([N+](=O)[O-])cc2)nn1)c1cn2ccccc2n1
MIC [3]: 1.56 µg/mL

COc1ccc(OCc2cn(CC(=O)Nc3cccc(C)c3)nn2)cc1
MIC [4]: > 25 µg/mL

Cc1ccc(-c2nc3n(n2)C2=NNC(c4ccc(N(C)C)cc4)C2S3)cc1 (stereo not given)
MIC [5]: 3.12 µg/mL (≈ 8.3 µM)

O=C1C(=O)N(Cc2cn(Cc3ccc([N+](=O)[O-])c([N+](=O)[O-])c3)nn2)c2ccccc21
MIC [1]: 7.56 µg/mL (≈ 18.5 µM)

COc1ccc(Cn2cc(CNC(=O)c3c(C)nc4ccccn34)nn2)cc1
MIC [3]: 1.56 µg/mL

Cc1nc2ncccn2c1C(=O)NCc1cn(Cc2ccccc2F)nn1
MIC [3]: 1.56 µg/mL

Cc1ccccc1NC(=O)Cn1cc(COc2ccccc2)nn1
MIC [4]: > 25 µg/mL

COc1ccc(C(=O)Cn2cc(CNC(=O)c3cc4cc(OC)ccc4nc3Cl)nn2)cc1
MIC [3]: 1.6 µg/mL

Cc1ccc(Cn2cc(CNC(=O)c3c(C)nc4ccccn34)nn2)cc1
MIC [3]: 1.56 µg/mL

Cc1ccc(Cn2cc(CNC(=O)c3c(C)nc4ncccn34)nn2)cc1
MIC [3]: 1.56 µg/mL

CCc1nn(-c2ccccc2)c(=O)n1N(Cc1ccc(O)cc1)CN(CC)CC
MIC [6]: 6.25 µg/mL

COc1ccc2nc(Cl)c(C(=O)NCc3cn(Cc4ccc(C#N)cc4)nn3)cc2c1
MIC [3]: 1.6 µg/mL

CO/N=C1/C(=O)C(CCOCCOCCOCCn2cc(CN3C(=O)/C(=N/OC)c4cc(F)ccc43)nn2)c2ccccc21 (stereo not given)
MIC [1]: 128 µg/mL (≈ 210 µM)

COc1ccc(C2NN=C3C2Sc2nc(-c4ccc(C)cc4)nn23)cc1 (stereo not given)
MIC [5]: 3.12 µg/mL (≈ 8.6 µM)

Cc1ccc(-c2nc3n(n2)C2=NOC(c4ccc(Cl)cc4)C2S3)cc1 (stereo not given)
MIC [5]: 3.12 µg/mL (≈ 8.47 µM)

O=C(c1ccccc1)C1C(c2cc3ccccc3nc2N2NNc3ccccc32)C2CCCN2C12C(=O)Nc1ccccc12 (stereo not given)
MIC [4]: 1.13 µM

Cc1ccc(-c2nc3n(n2)C2=NOC(c4ccc(Br)cc4)C2S3)cc1 (stereo not given)
MIC [5]: 3.12 µg/mL (≈ 7.56 µM)

COc1ccc(Cn2cc(CNC(=O)c3c(C)nc4ncccn34)nn2)cc1
MIC [3]: 1.56 µg/mL

COc1ccc(-n2ncn(Cc3cc4cc(C)ccc4nc3Cl)c2=O)cc1
MIC [6]: 0.077 µM

O=C(Cn1cc(COc2ccccc2)nn1)Nc1cccc(Cl)c1
MIC [4]: > 25 µg/mL

O=C(NCc1cn(Cc2ccc(C(F)(F)F)cc2)nn1)c1cn2ccccc2n1
MIC [3]: 1.56 µg/mL

Cc1ccc(-c2nc3n(n2)C2=NNC(c4ccc(Br)cc4)C2S3)cc1 (stereo not given)
MIC [5]: 3.12 µg/mL (≈ 7.58 µM)

O=C(Cn1cc(COc2ccc([N+](=O)[O-])cc2)nn1)Nc1ccccc1
MIC [4]: > 25 µg/mL

Cc1nc2ncccn2c1C(=O)NCc1cn(Cc2ccc([N+](=O)[O-])cc2)nn1
MIC [3]: 1.56 µg/mL

COc1ccc(Cn2cc(COCc3c(-c4ccc(OC)cc4)nc4ccccn34)nn2)cc1
MIC [3]: 1.56 µg/mL

O=C(NCc1cn(Cc2ccccc2F)nn1)c1cn2cccnc2n1
MIC [3]: 1.56 µg/mL

CC1=CC(C)Oc2cc(OCc3cn(Cc4cc(=O)oc5ccc(Cl)cc45)nn3)ccc21 (stereo not given)
MIC [6]: 6.25 µg/mL

COc1ccc(OCc2cn(CC(=O)Nc3ccccc3C)nn2)cc1
MIC [4]: > 25 µg/mL

COc1ccc(C2ON=C3C2Sc2nc(-c4ccc(C)cc4)nn23)cc1 (stereo not given)
MIC [5]: 3.12 µg/mL (≈ 8.58 µM)

O=C(Cn1cc(COc2ccc([N+](=O)[O-])cc2)nn1)Nc1ccccc1Cl
MIC [4]: > 25 µg/mL

Cc1ccc(-c2nc3n(n2)C2=NNC(c4cccc([N+](=O)[O-])c4)C2S3)cc1 (stereo not given)
MIC [5]: 3.12 µg/mL (≈ 8.26 µM)

COc1ccc(-c2nc3ccccn3c2COCc2cn(Cc3ccc(C)cc3)nn2)cc1
MIC [3]: 1.56 µg/mL

Cc1ccc2nc(O)c(Cn3cnn(-c4ccccc4)c3=O)cc2c1
MIC90 [6]: 0.073 µM (≈ 0.0243 µg/mL)

COc1ccc(Cn2cc(CNC(=O)c3cn4cccnc4n3)nn2)cc1
MIC [3]: 1.56 µg/mL

COc1ccccc1C1ON=C2C1Sc1nc(-c3ccc(C)cc3)nn12 (stereo not given)
MIC [5]: 3.12 µg/mL (≈ 8.58 µM)

O=C(NCc1cn(Cc2ccccc2F)nn1)c1cn2ccccc2n1
MIC [3]: 1.56 µg/mL

N#Cc1ccc(Cn2cc(CNC(=O)c3cn4cccnc4n3)nn2)cc1
MIC [3]: 1.56 µg/mL

CC1=CC(C)Oc2cc(OCc3cn(Cc4cc(=O)oc5ccc6ccccc6c45)nn3)ccc21 (stereo not given)
MIC [6]: 6.25 µg/mL

O=C1C(=O)N(Cc2cn(Cc3ccc(Br)cc3)nn2)c2ccccc21
MIC [1]: 8.09 µg/mL (≈ 20.4 µM)

Cc1ccc(NC(=O)Cn2cc(COc3ccccc3)nn2)cc1
MIC [4]: > 25 µg/mL

COc1ccc(Cn2cc(COCc3c(-c4ccccc4F)nc4ccccn34)nn2)cc1
MIC [3]: 1.56 µg/mL

COc1ccc2nc(O)c(Cn3cnn(-c4ccccc4)c3=O)cc2c1
MIC [6]: 0.074 µM

O=C(O)c1cn(C2CC2)c2cc(N3CCNCC3)c(F)cc2c1=O [CIPROFLOXACIN]
MIC [3]: 3.12 µM | MIC [6]: 3.12 µg/mL | MIC [1]: 3.12 µg/mL (≈ 9.42 µM)

NC(=O)c1cnccn1 [PYRAZINAMIDE]
MIC [3]: 3.12 µg/mL | MIC [6]: 3.12 µg/mL
